Reference: patent publication US6184374A, “Targeted cytotoxic anthracycline analogs” (priority 1998, dated 2001)
Where two headings read alike, the source gives them in different places. Where a SMILES comes first, the peptide text is derived from it. Bridges are numbered along the chain shown (N, C = ends). [ ]: non-standard residue; d: D form.

How the values were obtained:
[1] = system: MCF-7 human mammary carcinoma cell line; format: cell-based
Source text: (§1) MXT estrogen-independen mouse mammary carcinoma cell line was obtained from Dr. Gunter Berndhart, University of Regensburg, Germany. All the other cell lines used in the determination of the antiproliferative activity of the compounds of this invention were obtained from the American Type Culture Collection (ATCC).
(§2) For the evaluation of the activity of the analogs, a colorimetric cytotoxicity assay in microtitration plates was used based on quantification of biomass by staining cells with crystal violet, which correlates very well with determination of cell numbers. (Reile et al.; Anal. Biochem. 187, 262-267, 1990; Bernhardt G. et al, J. Cancer Res. Clin. Oncol. (1992), 118, 35-43; Spruss Th. et al, J. Cancer Res. Clin. Oncol 117, 435-443, 1991; Gillies, R. J., Anal. Biochem. 159, 109-113, 1986; Kueng, W. et al.; Anal. Biochem., 182 16-19, 1989.)
(§3) One to two days after seeding cells in 96-well plates the culture medium is exchanged with fresh medium containing the compounds to be tested and fresh medium only for the control cultures. After varying time of incubation, cells are fixed with glutaric dialdehyde and stored under […] at 4° C. until the end of the experiment. Cells are stained with crystal violet and bound stain is extracted with 70% aqueous EtOH. Optical density is measured with EIA Reader (Bio-Tek Instruments) or Biomek 1000 (Beckman) at 590 nm or 600 nm, respectively. Each data point represents the mean value of eight culture wells. T/C values are calculated as T/C=(T-C0)/(C-C0) where T=optical density of treated cultures, C=optical density of control (untreated) cultures, C0 =optical density of cultures at the start of incubation (t=0).
Cells were incubated in IMEM media containing 5% Hl:DCC-FBS (heat inactivated dextran coated charcoal treated fetal bovine serum) on 96 well plates. Relative cell number in treated and control plates was determined by the crystal violet staining method and was expressed as T/C values where T/C=T-C0 /C-C0×100 [T=absorbance of treated cultures, C= absorbance of control cultures, C0 =absorbance of cultures at the start of incubation (t=0). The measured absorbance is proportionate to the cell number.]

[2] = system: estrogen independent MXT mouse mammary cancers; assay: Effect of cytotoxic LH-RH analogs on estrogen independent MXT mouse mammary cancers (KS-47); format: in vivo
Description: MXT (3.2) ovex tumor pieces (1 mm^3) were transplanted in female B6 D2 F1 mice. The treatment started one day after transplantation and was continued for 12 days by i.p. injections once a day. Tumors were measured on days 10, 14 and 18, and tumor volume was calculated.

[3] = system: estrogen independent MXT mouse mammary cancers; assay: Earlier experiment with Q2 daily dosing (tumor growth, survival)
[4] = system: MIIA PaCa-2 Human Pancreatic Cancer Cell Line; assay: Growth of MIIA PaCa-2 cells in vitro (crystal violet T/C); format: cell-based
Source text: as §2, §3
Cells were incubated in RPMI 1640 media containing 10% fetal bovine serum on 96 well plates. [drawing 8]

[5] = system: growth hormone release from superfused rat pituitary cells; assay: Inhibition of hGH-RH(1-29)NH2 induced GH release, rat pituitary superfusion system; format: cell-based
Description: Accordingly, this method was used to compare the cytotoxic somatostatin analogs of the present invention to their parent carrier molecules with respect to their hormonal activities.
In rat pituitary superfusion system, the somatostatin analogs were administered for 3 min at 1 nM dose simultaneously with 1 nM hGH-RH(1-29)NH2. The infusion of the somatostatin analogs was maintained for another 6 min. GH responses to 3 min administration of 1 nM hGH-RH(1-29)NH2 were determined during the perfusion of the somatostatin analogs (0 min) and 30, 60 and 90 min after the administration stopped.

[6] = system: MXT estrogen independent mouse mammary carcinoma cell line; assay: In vitro cytotoxic activity, crystal violet colorimetric assay on MXT; format: cell-based
Source text: as §1, §2, §3

[7] = system: CFPAC-1 Human Pancreatic Cancer Cell; assay: Growth of CFPAC-1 cells in vitro (crystal violet T/C); format: cell-based
Source text: as §2, §3

[8] = system: estrogen independent MXT mouse mammary cancers; assay: Treatment of estrogen independent MXT mouse mammary cancers (KS-49); format: in vivo; conditions: for Average survival: 520 nmol/inj. i.p., 3 weeks, total 1560 nmol (Group 13)
Source text: In order to compare the tumor inhibitory activity of cytotoxic doxorubicin derivative, Q6 and its targeted cytotoxic peptide conjugate, Q6^14 gL as well as the well known antineoplastic agent, DOX and to determine the optimal way of administration and the nontoxic doses, LH-RH receptor positive MXT (3.2) ovex tumor pieces (1 mm^3) were implanted s. c. in female B6 D2 F1 mice. One day after transplantation the mice were randomly divided into groups of five animals and the treatment started. The compounds were dissolved in 0.1% trifluoroacetic acid (pH 2) and given intraperitoneally.

[9] = system: estrogen independent MXT mouse mammary cancers; assay: Single treatment of estrogen independent MXT mouse mammary cancers (KS-55); format: in vivo
Description: In order to determine the maximum tolerated doses and compare the effects, MXT (3.2) ovex tumor pieces (1 mm^3) were implanted s.c. in female B6 D2 F1 mice. One day after transplantation the mice were randomly divided into groups of five animals and they were treated with a single injection i.p. The groups and doses are shown in the Table 25-1. […] The compounds were dissolved in 0.1% TFA (pH: 2.0). Tumor volume was measured on days 10, 13, 17, and 20.

[10] = Table 17-1, 10^-8 M; incubation 70 hr
[11] = Table 17-1, 10^-8 M; incubation 120 hr
[12] = Table 17-1; 3 × 10^-8 M; incubation 70 hr
[13] = Table 17-1; 3 × 10^-8 M; incubation 120 hr
[14] = Table 17-1; 10^-8 M; incubation 70 hr
[15] = Table 17-1; 10^-8 M; incubation 120 hr
[16] = daily dose of 30 nmol (equimolar) i.p. for 12 days
[17] = 0 min (during perfusion of 1 nM somatostatin analog), percentage of GH release before analog
[18] = 30 min after infusion of 1 nM somatostatin analog
[19] = 60 min after infusion of 1 nM somatostatin analog
[20] = single i.p. injection 650 nmol/20 g
[21] = single i.p. injection 700 nmol/20 g
[22] = single i.p. injection 750 nmol/20 g

With `COc1cccc2c1C(=O)c1c(O)c3c(c(O)c1C2=O)C[C@@](O)(C(=O)CO)C[C@@H]3O[C@H]1C[C@H](N2CCCC2)[C@H](O)[C@H](C)O1.O=C(O)C(F)(F)F` [Compound Q2, 3'-deamino-3'-(pyrrolidine-1"-yl)doxorubicin] the “T/C Value” [1, 10] was -26, the “T/C Value” [1, 11] was -19 and the “T/C Value” [1, 12] was 25. The “T/C Value” [1, 13] was 17, the “T/C Value” [1, 14] was 97 and the “T/C Value” [1, 15] was 94. The “Effect on tumor growth” value [2, 16] was “strong inhibitory effect on tumor growth”, the “Mean survival after transplantation” value [2, 16] was 17.9 days and the “Mean tumor volume on day 10” value [2, 16] was 153 mm^3. The “Mean tumor volume on day 14” value [2, 16] was 144 mm^3, the “Mean tumor volume on day 18” value [2, 16] was 137 mm^3 and the Toxicity ([2]; daily dose of 30 nmol i.p. for 12 days) was “severe toxicity”. The “Effect on tumor growth” value ([3]; 20 nmol daily dose for 17 days) was “only a moderate inhibitory effect on tumor growth”, the Mean survival ([3]; 40 nmol dose) was 14.6 days and the Toxicity ([3]; 40 nmol dose) was “toxic”.

With `C[C@@H](O)[C@H](NC(=O)[C@@H]1CSSC[C@H](NC(=O)[C@H](N)Cc2c[nH]c3ccccc23)C(=O)N[C@@H](Cc2ccccc2)C(=O)N[C@H](Cc2c[nH]c3ccccc23)C(=O)N[C@@H](CCCCN)C(=O)N[C@@H]([C@@H](C)O)C(=O)N1)C(N)=O` [Compound S-98] (H-[dW]CF[dW]KTCT-NH2; disulfide 2-7) the “T/C Value” ([4]; 10^-6 M, incubation 28 h) was 96, the “T/C Value” ([4]; 10^-6 M, incubation 76 h) was 98 and the “GH release induced by 3 min administration of 1 nM hGH-RH(1-29)NH2” value (shortened to “GH release induced”) [5, 17] was 2.9%. The “GH release induced” value [5, 18] was 94.7% and the “GH release induced” value [5, 19] was 117.6%.

For `CC(C)[C@@H]1NC(=O)[C@H](CCCCN)NC(=O)[C@@H](Cc2c[nH]c3ccccc23)NC(=O)[C@H](Cc2ccc(O)cc2)NC(=O)[C@@H](NC(=O)[C@H](N)Cc2ccccc2)CSSC[C@@H](C(=O)N[C@H](C(N)=O)[C@@H](C)O)NC1=O` [Compound S-121], the “T/C Value” ([4]; 10^-6 M, incubation 28 h) was 76, the “T/C Value” ([4]; 10^-6 M, incubation 76 h) was 96 and the “GH release induced” value [5, 17] was 0%. For the same molecule, the “GH release induced” value [5, 18] was 90% and the “GH release induced” value [5, 19] was 89.7%.

For `COc1cccc2c1C(=O)c1c(O)c3c(c(O)c1C2=O)C[C@@](O)(C(=O)CO)C[C@@H]3O[C@H]1C[C@H](N)[C@H](O)[C@H](C)O1` [Doxorubicin, doxorubicin], the “T/C Value” [1, 10] was 54, the “T/C Value” [1, 11] was 33 and the “T/C Value” [1, 12] was 82. For the same molecule, the “T/C Value” [1, 13] was 66, the “T/C Value” [1, 14] was 98 and the “T/C Value” [1, 15] was 95. For the same molecule, the “T/C Value on MCF-7 Cell Line” value ([1]; Table 18-1; 3 × 10^-8 M; 70 hr) was 82, the “T/C Value on MCF-7 Cell Line” value ([1]; Table 18-1; 3 × 10^-8 M; 120 hr) was 66 and the “T/C Value on MCF-7 Cell Line” value ([1]; Table 18-1; 10^-7 M; 70 hr) was 54. The “T/C Value on MCF-7 Cell Line” value ([1]; Table 18-1; 10^-7 M; 120 hr) was 33, the “T/C Value on MCF-7 Cell Line” value ([1]; Table 18-1; 10^-8 M; 70 hr) was 98 and the “T/C Value on MCF-7 Cell Line” value ([1]; Table 18-1; 10^-8 M; 120 hr) was 95. The “T/C value on MXT cell line” value ([6]; 3 × 10^-8 M, 26 hr) was 90, the “T/C value on MXT cell line” value ([6]; 3 × 10^-8 M, 50 hr) was 60 and the “T/C value on MXT cell line” value ([6]; 10^-7 M, 26 hr) was 59. For the same molecule, the “T/C value on MXT cell line” value ([6]; 10^-7 M, 50 hr) was 43, the “T/C value on MXT cell line” value ([6]; 10^-8 M, 26 hr) was 85 and the “T/C value on MXT cell line” value ([6]; 10^-8 M, 50 hr) was 74. The “T/C Value” ([4]; 10^-6 M, incubation 28 h) was -28, the “T/C Value” ([4]; 10^-6 M, incubation 76 h) was -7 and the “T/C Value” ([4]; 10^-7 M, incubation 28 h) was 64. The “T/C Value” ([4]; 10^-7 M, incubation 76 h) was 10, the “T/C Value” ([4]; 10^-8 M, incubation 28 h) was 95 and the “T/C Value” ([4]; 10^-8 M, incubation 76 h) was 71. For the same molecule, the “T/C Value” ([7]; 3 × 10^-7 M, incubation 66 h) was 15, the “T/C Value” ([7]; 3 × 10^-7 M, incubation 95 h) was 10 and the “T/C Value” ([7]; 3 × 10^-7 M, incubation 137 h) was 7. For the same molecule, the “T/C Value” ([7]; 3 × 10^-8 M, incubation 66 h) was 88, the “T/C Value” ([7]; 3 × 10^-8 M, incubation 95 h) was 73 and the “T/C Value” ([7]; 3 × 10^-8 M, incubation 137 h) was 49. For the same molecule, the “T/C Value” ([7]; 10^-6 M, incubation 66 h) was -7, the “T/C Value” ([7]; 10^-6 M, incubation 95 h) was -6 and the “T/C Value” ([7]; 10^-6 M, incubation 137 h) was -4. For the same molecule, the “T/C Value” ([7]; 10^-7 M, incubation 66 h) was 52, the “T/C Value” ([7]; 10^-7 M, incubation 95 h) was 32 and the “T/C Value” ([7]; 10^-7 M, incubation 137 h) was 20. For the same molecule, the Average survival [8] was 20 days, the Average survival ([8]; listed as DOX) was 20.0 days and the “Eradication of the tumor” value ([8]; toxic dose, total amount 1560 nmol) was “could not eradicate the tumor”. The “Suppression of tumor growth” value ([9]; dose of 650 nmol/20 g mouse (as printed in text)) was “significantly less effective”, the Toxicity ([9]; single dose of 650 nmol/20 g mouse (as printed in text)) was “highly toxic” and the Average survival [9, 20] was 13.6 days. For the same molecule, the “Number of tumorous mice/number of surviving mice Day 10” value [9, 20] was 3/3, the “Number of tumorous mice/number of surviving mice Day 13” value [9, 20] was 2/2 and the “Number of tumorous mice/number of surviving mice Day 17” value [9, 20] was 1/1. The “Number of tumorous mice/number of surviving mice Day 20” value [9, 20] was 1/1, the Average survival [9, 21] was 15.2 days and the “Number of tumorous mice/number of surviving mice Day 10” value [9, 21] was 2/3. For the same molecule, the “Number of tumorous mice/number of surviving mice Day 13” value [9, 21] was 2/3, the “Number of tumorous mice/number of surviving mice Day 17” value [9, 21] was 2/2 and the Average survival [9, 22] was 7.8 days. For the same molecule, the “Number of tumorous mice/number of surviving mice Day 10” value [9, 22] was 1/1.
